Source: ChEMBL document CHEMBL2073746, “Inhibitory effect of the reversal agents V-104, GF120918 and Pluronic L61 on MDR1 Pgp-, MRP1- and MRP2-mediated transport” (Br J Cancer, 2000)

Legend:
Format in all cases: functional, cell-based
[1] = target: T1, ATP-dependent translocase ABCB1 (Homo sapiens, UniProt P08183); experiment: TP_TRANSPORTER: inhibition of Daunorubicin transepithelial transport (basal to apical)(Daunorubicin: 2 uM, V-104: 15 uM) in MDR1-expressing MDCKII cells; details: dog, mdck-ii
T1 sequence (P08183 whole entry): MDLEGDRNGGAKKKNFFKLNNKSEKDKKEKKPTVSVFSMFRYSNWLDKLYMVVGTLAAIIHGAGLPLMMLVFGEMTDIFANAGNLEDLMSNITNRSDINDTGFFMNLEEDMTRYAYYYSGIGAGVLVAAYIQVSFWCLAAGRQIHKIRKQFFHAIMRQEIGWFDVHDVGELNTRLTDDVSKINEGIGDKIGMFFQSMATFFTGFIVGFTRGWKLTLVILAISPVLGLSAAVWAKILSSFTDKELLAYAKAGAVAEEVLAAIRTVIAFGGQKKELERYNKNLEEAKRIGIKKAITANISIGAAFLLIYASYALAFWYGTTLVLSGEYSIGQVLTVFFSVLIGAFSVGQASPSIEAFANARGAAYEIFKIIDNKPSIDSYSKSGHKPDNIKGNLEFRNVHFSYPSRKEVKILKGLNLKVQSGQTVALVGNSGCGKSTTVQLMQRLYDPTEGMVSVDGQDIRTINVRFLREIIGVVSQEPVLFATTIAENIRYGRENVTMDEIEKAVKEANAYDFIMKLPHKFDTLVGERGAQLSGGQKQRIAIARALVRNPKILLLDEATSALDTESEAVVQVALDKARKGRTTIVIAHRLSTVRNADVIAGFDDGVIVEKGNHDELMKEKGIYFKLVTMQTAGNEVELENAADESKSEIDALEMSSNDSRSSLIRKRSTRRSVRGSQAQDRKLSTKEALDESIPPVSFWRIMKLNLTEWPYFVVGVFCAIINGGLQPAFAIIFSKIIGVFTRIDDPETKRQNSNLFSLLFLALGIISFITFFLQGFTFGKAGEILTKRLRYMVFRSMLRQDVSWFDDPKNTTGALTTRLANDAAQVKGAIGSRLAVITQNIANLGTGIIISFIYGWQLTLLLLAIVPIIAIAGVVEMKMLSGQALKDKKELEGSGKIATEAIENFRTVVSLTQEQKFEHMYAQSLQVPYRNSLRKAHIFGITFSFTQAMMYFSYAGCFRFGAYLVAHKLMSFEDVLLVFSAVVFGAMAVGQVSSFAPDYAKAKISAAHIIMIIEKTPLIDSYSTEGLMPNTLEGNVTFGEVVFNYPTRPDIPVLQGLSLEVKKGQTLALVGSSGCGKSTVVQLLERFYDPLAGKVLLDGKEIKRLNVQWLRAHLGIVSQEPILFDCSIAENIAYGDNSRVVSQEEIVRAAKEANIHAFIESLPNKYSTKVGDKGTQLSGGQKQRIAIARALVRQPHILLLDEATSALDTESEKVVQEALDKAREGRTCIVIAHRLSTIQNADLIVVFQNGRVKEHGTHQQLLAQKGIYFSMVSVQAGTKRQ

[2] = target: ATP-binding cassette sub-family C member 2 (Homo sapiens, UniProt Q92887); experiment: TP_TRANSPORTER: inhibition of Vinblastine transepithelial transport (basal to apical)(Vinblastine: 2 uM, Pluronic L61: 0.1%) in MRP2-expressing MDCKII cells; details: dog, mdck-ii
Sequence of ATP-binding cassette sub-family C member 2 (Q92887 whole entry): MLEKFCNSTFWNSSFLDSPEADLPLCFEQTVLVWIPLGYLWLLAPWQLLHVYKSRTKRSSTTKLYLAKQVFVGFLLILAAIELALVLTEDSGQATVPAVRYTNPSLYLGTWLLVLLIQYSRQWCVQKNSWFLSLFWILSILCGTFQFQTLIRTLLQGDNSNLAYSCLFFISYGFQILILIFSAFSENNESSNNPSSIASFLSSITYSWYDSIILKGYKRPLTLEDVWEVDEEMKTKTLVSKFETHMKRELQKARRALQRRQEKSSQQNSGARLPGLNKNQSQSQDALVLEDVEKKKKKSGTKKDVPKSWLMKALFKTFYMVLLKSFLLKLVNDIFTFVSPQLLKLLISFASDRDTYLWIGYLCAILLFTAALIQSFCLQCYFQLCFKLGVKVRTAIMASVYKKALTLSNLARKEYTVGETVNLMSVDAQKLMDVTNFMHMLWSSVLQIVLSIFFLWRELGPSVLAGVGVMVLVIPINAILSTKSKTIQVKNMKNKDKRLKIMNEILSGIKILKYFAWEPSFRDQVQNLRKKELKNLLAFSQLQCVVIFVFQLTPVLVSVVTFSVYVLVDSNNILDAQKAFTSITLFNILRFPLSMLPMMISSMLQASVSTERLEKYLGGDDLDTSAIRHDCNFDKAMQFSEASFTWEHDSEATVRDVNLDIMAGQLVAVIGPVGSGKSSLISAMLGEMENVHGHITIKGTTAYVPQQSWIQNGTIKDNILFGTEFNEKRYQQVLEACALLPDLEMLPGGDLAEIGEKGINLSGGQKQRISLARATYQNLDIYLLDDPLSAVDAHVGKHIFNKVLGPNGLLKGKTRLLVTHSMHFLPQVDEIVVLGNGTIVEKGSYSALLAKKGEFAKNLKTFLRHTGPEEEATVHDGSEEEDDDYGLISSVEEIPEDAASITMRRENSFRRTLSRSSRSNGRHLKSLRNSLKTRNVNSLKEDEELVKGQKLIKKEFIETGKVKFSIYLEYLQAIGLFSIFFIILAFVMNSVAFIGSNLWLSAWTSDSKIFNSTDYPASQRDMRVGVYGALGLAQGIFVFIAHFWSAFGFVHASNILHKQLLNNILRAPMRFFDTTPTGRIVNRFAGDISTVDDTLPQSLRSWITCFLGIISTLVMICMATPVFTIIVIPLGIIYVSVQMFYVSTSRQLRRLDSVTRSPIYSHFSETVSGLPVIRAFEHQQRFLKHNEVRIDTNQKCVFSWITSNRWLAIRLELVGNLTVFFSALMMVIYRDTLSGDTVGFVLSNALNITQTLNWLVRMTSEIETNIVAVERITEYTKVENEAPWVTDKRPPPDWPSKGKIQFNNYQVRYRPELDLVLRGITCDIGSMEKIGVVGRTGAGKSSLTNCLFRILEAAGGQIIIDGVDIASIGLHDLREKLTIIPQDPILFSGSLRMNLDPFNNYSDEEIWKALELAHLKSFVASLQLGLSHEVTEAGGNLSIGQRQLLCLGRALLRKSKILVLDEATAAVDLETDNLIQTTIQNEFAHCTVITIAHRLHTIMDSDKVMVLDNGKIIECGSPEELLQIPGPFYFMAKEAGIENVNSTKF

[3] = target: T1, ATP-dependent translocase ABCB1; experiment: TP_TRANSPORTER: inhibition of Vinblastine transepithelial transport (basal to apical) (Vinblastine: 2 uM, Pluronic L61: 0.04%) in MDR1-expressing LLC-PK1 cells; details: pig

Activity [1] | Activity [2] | Activity [3] | Compound
inhibitor [+] |  |  | COc1cc(C(=O)C(=O)N2CCCC[C@H]2C(=O)O)cc(OC)c1OC
 | inhibitor [+] | inhibitor [+] | PLURONIC L61
